Measured values taken from patent publication US20240398783A1, “Compounds and Pharmaceutical Compositions Comprising Inhibitors of Amyloid Peptide Interactions with Glycosaminoglycans, Methods of Treatment and Use Thereof” (Gismo Therapeutics, Inc., priority 2021, published 2024).
pIC50: −log10 of the molar value. Where a name gives a salt, the structure may show the parent alone. Read-outs that look alike come from different tables or passages of the source.

Assays:
[1] = target: T1, SAA binding to heparin (HS-GAG) (Homo sapiens, UniProt P0DJI8); assay: Inhibition of SAA binding to immobilized heparin-BSA (ELISA); design: species or system porcine
T1 sequence (P0DJI8 19-122): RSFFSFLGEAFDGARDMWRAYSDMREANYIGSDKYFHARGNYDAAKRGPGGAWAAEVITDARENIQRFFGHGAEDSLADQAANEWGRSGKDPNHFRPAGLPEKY
Description: (§1) Porcine intestinal mucosa heparin conjugated to Bovine Serum Albumin (Heparin-BSA) was prepared as described (Najjam, S. et al. 1997, Cytokine 12, 1013-1022). Heparin is a sulfated HS-GAG and is commonly used as a HS-GAG in biochemical and binding assays (Lindahl, U. and Kjellen, L. (2013) ibid). Heparin-BSA at 0.01 mg/ml in Phosphate Buffered Saline (PBS; pH 7.4) was added to a 96 well polystyrene ELISA plate (NUNC Cat. No. 449824; 100 μl per well) and incubated Over Night (ON) at 4 degrees Celsius. For negative controls, ELISA plates were coated with BSA instead of Heparin-BSA, using the same procedure. Following the incubation, the plate was washed consecutively, by immersion, with de-ionized water and PBS (pH 7.4). The ELISA plate was then blocked with nonfat milk (2%, 200 μl per well) for 2 hours at Room Temperature (RT) with gentle shaking. Following blocking, the plate was washed with de-ionized water then PBS (pH 7.4). GBAPs were dissolved and diluted in PBS (pH 6.5, supplemented with 0.1% BSA) at desired concentrations, added to the ELISA plates containing immobilized Heparin-BSA (100 μl per well) and incubated for 2 hours at RT with gentle shaking. Following incubation, the plate was washed with de-ionized water and three times with PBS (pH 6.5) plus Tween. Bound GBAP was detected by a monoclonal antibody specific for that GBAP, followed by incubation with secondary antibody conjugated to horseradish peroxidase (HRP). Antibody was diluted in PBS (pH 6.5 supplemented with 1% BSA). Following each incubation with antibody, the plate was washed with de-ionized water and three times with PBS (pH 6.5) wash buffer containing 0.1% Tween. The peroxidase substrate chromogen, TMB (Dako Cat. No. S1599) was added (100 μl per well) to the ELISA plate and incubated at room temperature. After 5 minutes ELISA Stop Solution (hydrochloric acid 1N, sulfuric acid 3N) was added (100 μl per well) to stop the peroxidase catalyzed colorimetric reaction. The Optical Density of the samples was measured at 450 nm using an ELISA plate reader (BioTek Synergy H1). Following color development, the % inhibition compared to control (BSA-coated plates) was determined. IC-50s were calculated using GraphPad Prism software.
The assay was performed as described in Example 43, with the following modifications. Following to coating the plates with Heparin-BSA, plates were washed as described. The compounds were dissolved in DMSO at 10 mM final concentration and further diluted prior to assay. DMSO concentration in the screening well was up to 2%. Individual compounds were co-incubated with SAA on plates containing immobilized heparin. Serum amyloid A (SAA) from PeProtech (NJ, USA, Cat. No. 300-53) was dissolved in DMSO, quickly frozen and kept in aliquots at −80 degrees Celsius. SAA dissolved in Tris buffer (pH 6.5, supplemented with BSA, 0.1%) was added to the ELISA plate (100 μl per well) and incubated for 2 hours at RT with gentle shaking. Following the incubation, the plate was washed with de-ionized water and three times with Tris Buffered Saline (TBS, pH 6.5) plus Tween. Bound SAA was detected by Anti-SAA Monoclonal Antibody (R&D System Cat. No. MAB30192), followed by secondary anti-IgG antibody conjugated to HRP (R&D System, Cat. No. HAF007). Antibody was diluted in TBS antibody buffer (pH6.5 supplemented with 1% BSA). Following each incubation with antibody, the plate was washed with de-ionized water and three times with TBS (pH6.5) wash buffer containing 0.1% Tween. Following to color development with TMB, as described in Example 43, the Optical Density of the samples was measured at 450 nm using an ELISA plate reader. Following color development, the % inhibition compared to control (no compound, DMSO control) for every compound was determined.
As described in Example 43, Heparin in the form of Heparin-BSA conjugate is used as a source of HS-GAG. For each compound IC-50 value in SAA—heparin-BSA binding assay is shown in μM (micromolar). […]

[2] = target: TDP-43 binding to heparin (HS-GAG) (Homo sapiens, UniProt Q13148); assay: Inhibition of TDP-43 binding to immobilized heparin-BSA (ELISA); design: species or system porcine; settings: for pIC50: TDP-43, heparin-BSA; for inhibition at 30 µM: read-out: TDP43/Heparin Activity (% inhibition class)
TDP-43 binding to heparin (HS-GAG), sequence (Q13148 whole entry): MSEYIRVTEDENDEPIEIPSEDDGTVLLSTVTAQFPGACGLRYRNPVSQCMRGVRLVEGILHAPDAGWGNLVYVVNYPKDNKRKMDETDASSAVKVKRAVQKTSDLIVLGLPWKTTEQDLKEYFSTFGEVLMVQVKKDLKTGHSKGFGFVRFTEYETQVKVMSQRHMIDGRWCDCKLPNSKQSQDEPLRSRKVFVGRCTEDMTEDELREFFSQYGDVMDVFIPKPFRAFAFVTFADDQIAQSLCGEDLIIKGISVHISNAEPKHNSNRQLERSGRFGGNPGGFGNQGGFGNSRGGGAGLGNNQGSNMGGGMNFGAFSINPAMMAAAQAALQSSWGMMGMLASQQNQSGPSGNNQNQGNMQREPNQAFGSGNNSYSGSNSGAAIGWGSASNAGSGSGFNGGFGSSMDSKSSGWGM
Description: as §1
The assay was performed as described in Example 43, with the following modifications.
Following to coating the plates with Heparin-BSA, plates were washed as described. The compounds were dissolved in DMSO at 10 mM final concentration and further diluted prior to assay. DMSO concentration in the screening well was up to 2%. Individual compounds were co-incubated with TDP-43 on plates containing immobilized heparin. TDP43 from R&D System (Cat. No. AP-190) was quickly frozen and kept in aliquots at −80 degrees Celsius. TDP-43 dissolved in PBS (pH 6.5, supplemented with BSA, 0.1%) was added to the ELISA plate (100 μl per well) and incubated for 2 hours at RT with gentle shaking. Following the incubation, the plate was washed with de-ionized water and three times with PBS (pH 6.5) plus Tween. Bound TDP-43 was detected by Anti-TDP43 Monoclonal Antibody (R&D System Cat. No. MAB7778), followed by secondary anti-IgG antibody conjugated to HRP (R&D System, Cat. No. HAF007). Following to color development with TMB, as described in Example 43, the Optical Density of the samples was measured at 450 nm using an ELISA plate reader. Following color development, the % inhibition compared to control (no compound, DMSO control) for every compound was determined.
As described in Example 43, Heparin in the form of Heparin-BSA conjugate is used as a source of HS-GAG. For each compound IC-50 value in TDP-43—heparin-BSA binding assay is shown in μM (micromolar). In some cases IC-50 was not measured and % inhibition at 30 μM compound concentration is shown instead. […] All assays were done on 96-well plates in duplicates and experiments were repeated at least twice. […]

[3] = read-out: Serum Amyloid A/Heparin Activity (IC-50); SAA, heparin-BSA
[4] = SAA, heparin-BSA; read-out: Serum Amyloid A/Heparin Activity (IC-50)
[5] = read-out: TDP43/Heparin Activity (IC-50)
[6] = read-out: Serum Amyloid A/Heparin Activity (% inhibition class)

SMILES | pIC50 [1, 3] | pIC50 ([2]; TDP43/Heparin Activity (IC-50)) | inhibition at 30 µM [1, 6] [%] | other results
Cc1ncn(-c2ccc(/C=N\Nc3ncnc4cc(Cl)ccc34)cn2)c1C [Compound 15, 7-chloro-4-(2-((6-(4,5-dimethyl-1H-imidazol-1-yl)pyridin-3-yl)methylene)hydrazineyl)quinazoline hydrochloride] | 4.91 | 5.51 |  | 
C/C(=N\Nc1ncnc2cc(Cl)ccc12)c1ccc(-n2cnc(C)c2C)nc1 [Compound 16, 7-chloro-4-(2-(1-(6-(4,5-dimethyl-1H-imidazol-1-yl)pyridin-3-yl)ethylidene)hydrazineyl)quinazoline phosphate] | 4.86 | 5.67 |  | 
C/C(=N\Nc1ncnc2cc(Cl)ccc12)c1ccc(-n2cc[n+](C)c2)nc1 [Compound 17, (E)-1-(5-(1-(2-(7-chloroquinazolin-4-yl)hydrazineylidene)ethyl)pyridin-2-yl)-3-methyl-1H-imidazol-3-ium iodide phosphoric acid salt] | 4.46 | 4.47 |  | 
C/C(=N\Nc1ncnc2cc(Cl)ccc12)c1ccc(-n2cc(C)nc2C)nc1 [Compound 18, (E)-7-chloro-4-(2-(1-(6-(2,4-dimethyl-1H-imidazol-1-yl)pyridin-3-yl)ethylidene)hydrazineyl)quinazoline phosphoric acid salt] |  |  |  | pIC50 [1, 4]: 4.65; pIC50 [2, 5]: 5.32
C/C(=N\Nc1ncnc2ccccc12)c1ccc(-n2cc(C)nc2C)nc1 [Compound 19, (E)-4-(2-(1-(6-(2,4-dimethyl-1H-imidazol-1-yl)pyridin-3-yl)ethylidene)hydrazineyl)quinazoline] | 5.07 | 4.43 |  | 
CN1CCN(c2cc(Nc3ccnc4cc(Cl)ccc34)ccn2)CC1 [Compound 20, 7-chloro-N-(2-(4-methylpiperazin-1-yl)pyridin-4-yl)quinolin-4-amine] |  |  | > 30 | inhibition at 30 µM [2]: < 30%
C/C(=N\Nc1ncnc2cc(F)ccc12)c1ccc(-n2cnc(C)c2C)nc1 [Compound 21, (E)-4-(2-(1-(6-(4,5-dimethyl-1H-imidazol-1-yl)pyridin-3-yl)ethylidene)hydrazineyl)-7-fluoroquinazoline] |  |  |  | pIC50 [1, 4]: 4.07; pIC50 [2, 5]: 5.34
CC(=NNc1ccnc2cc(Cl)ccc12)c1ccc(-n2cnc(C)c2C)nc1 [Compound 22, 7-chloro-4-(2-(1-(6-(4,5-dimethyl-1H-imidazol-1-yl)pyridin-3-yl)ethylidene)hydrazineyl)quinoline] | 4.08 | 5.04 |  | 
CC(=NNc1ccnc2cc(Cl)ccc12)c1ccc(-n2cc[n+](C)c2)nc1 [Compound 23, 1-(5-(1-(2-(7-chloroquinolin-4-yl)hydrazineylidene)ethyl)pyridin-2-yl)-3-methyl-1H-imidazol-3-ium iodide] |  |  | < 30 | inhibition at 30 µM [2]: < 30%
C/C(=N\Nc1nncc2cc(Cl)ccc12)c1ccc(-n2cc(C)nc2C)nc1 [Compound 24, (E)-6-chloro-1-(2-(1-(6-(2,4-dimethyl-1H-imidazol-1-yl)pyridin-3-yl)ethylidene)hydrazineyl)phthalazine] |  |  |  | pIC50 [1, 4]: 5.10; pIC50 [2, 5]: 6.05
Cc1ncn(-c2ccc(Nc3ncnc4cc(Cl)ccc34)cn2)c1C [Compound 25, 7-chloro-N-(6-(4,5-dimethyl-1H-imidazol-1-yl)pyridin-3-yl)quinazolin-4-amine] | 4.39 | 5.61 |  | 
C/C(=N\Nc1ncnc2cc(F)ccc12)c1ccc(-n2cc[n+](C)c2)nc1 [Compound 26, (E)-1-(5-(1-(2-(7-fluoroquinazolin-4-yl)hydrazineylidene)ethyl)pyridin-2-yl)-3-methyl-1H-imidazol-3-ium phosphoric acid salt] |  | 4.48 | < 30 | 
C/C(=N\Nc1ncnc2cc(Cl)ccc12)c1ccc(-n2cc(C)nc2C)nc1 [Compound 27, (E)-7-chloro-4-(2-(1-(6-(2,4-dimethyl-1H-imidazol-1-yl)pyridin-3-yl)ethylidene)hydrazineyl)quinazoline hydrochloride] |  |  |  | pIC50 ([1]; SAA, heparin-BSA; hydrochloride; read-out: Serum Amyloid A/Heparin Activity (IC-50)): 4.61; pIC50 [2, 5]: 5.66
CC(=NNc1ncnc2cc(Cl)ccc12)c1ccnc(-n2cnc(C)c2C)c1 [Compound 28, 7-chloro-4-(2-(1-(2-(4,5-dimethyl-1H-imidazol-1-yl)pyridin-4-yl)ethylidene)hydrazineyl)quinazoline] |  |  |  | pIC50 [1, 4]: 5.06; pIC50 [2, 5]: 5.24
C/C(=N\Nc1ncnc2cc(Cl)ccc12)c1cccc(CN(C)C)c1 [Compound 29, 1-(3-(1-(2-(7-chloroquinazolin-4-yl)hydrazineylidene)ethyl)phenyl)—N,N-dimethylmethanamine] |  |  | < 30 | inhibition at 30 µM [2]: < 30%
C/C(=N\Nc1ncnc2cc(Cl)ccc12)c1cccc(N2CCN(C)CC2)c1 [Compound 30, 7-chloro-4-(2-(1-(3-(4-methylpiperazin-1-yl)phenyl)ethylidene)hydrazineyl)quinazoline] |  | 4.91 | < 30 | 
COc1cc(Nc2nncc3cc(Cl)ccc23)cnc1-n1cnc(C)c1C [Compound 31, 6-chloro-N-(6-(4,5-dimethyl-1H-imidazol-1-yl)-5-methoxypyridin-3-yl)phthalazin-1-amine phosphoric acid salt] |  |  | > 30 | inhibition at 30 µM [2]: < 30%
C/C(=N\Nc1ncnc2cc(Cl)ccc12)c1ccc(-n2cncn2)nc1 [Compound 32, (E)-4-(2-(1-(6-(1H-1,2,4-triazol-1-yl)pyridin-3-yl)ethylidene)hydrazineyl)-7-chloroquinazoline] |  |  | > 30 | inhibition at 30 µM [2]: < 30%
